The record followed here is PubChem BioAssay (NCI).

Some test systems named below: U251 CNS; UACC-257 melanoma; HT29 colon; BT-549 breast; OVCAR-5 ovarian; HL-60(TB) leukemia; NCI-H460 lung; SK-MEL-2 melanoma; SN12C renal; T-47D breast.
What all share (assay): NCI-60 cell line screen, 48 h

The structures appear in SMILES notation.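 Dose response: 5 concentrations. Exposure: 48 h. Format: 96-well plates. Endpoint: linear interpolation; highest concentration if not reached. Here, GI50 denotes the concentration required for 50% inhibition of growth. Definition used: TGI = concentration required for complete inhibition of growth.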

On to `CC1(C)N=C(N)N=C(N)N1c1ccc(OCCCCNC(=O)c2ccc(S(=O)(=O)F)cc2)c(Cl)c1`, for which the GI50 in the assay with U251 CNS is 5.65 µM; in the assay with UACC-257 melanoma it was 6.36 µM; in the assay on HT29 colon, 4.19 µM; with BT-549 breast it was over 100 µM; in the assay with OVCAR-5 ovarian, over 100 µM; in the assay on HL-60(TB) leukemia it was 1.84 µM. For the same compound, the GI50 in the assay on NCI-H460 lung was 2.1 µM; in the assay with SK-MEL-2 melanoma it was 77.2 µM; in the assay on SN12C renal it was 4.47 µM; with T-47D breast, over 100 µM. Moreover, the TGI in the assay with U251 CNS, with UACC-257 melanoma, with HT29 colon, in the assay with BT-549 breast, with OVCAR-5 ovarian and in the assay with HL-60(TB) leukemia was over 100 µM in each case. Moreover, the TGI with NCI-H460 lung, in the assay with SK-MEL-2 melanoma, in the assay with SN12C renal and with T-47D breast was over 100 µM throughout.
On to `Cn1c(O)c(N=NC(N)=S)c2ccccc21`, for which the GI50 with U251 CNS was 46.7 µM; in the assay with UACC-257 melanoma, 71.6 µM; in the assay with HT29 colon, over 100 µM; in the assay with BT-549 breast it was over 100 µM; in the assay on OVCAR-5 ovarian it was over 100 µM; in the assay on HL-60(TB) leukemia it was 37.9 µM. The GI50 with NCI-H460 lung is 33.9 µM; in the assay with SK-MEL-2 melanoma it was over 100 µM; in the assay with SN12C renal it was over 100 µM; with T-47D breast, 43.9 µM. Moreover, the TGI in the assay on U251 CNS, with UACC-257 melanoma, in the assay with HT29 colon, with BT-549 breast, with OVCAR-5 ovarian and in the assay on HL-60(TB) leukemia was over 100 µM in each case. The TGI in the assay with NCI-H460 lung, in the assay with SK-MEL-2 melanoma, in the assay with SN12C renal and in the assay on T-47D breast was over 100 µM in each case.
Turning to `O=c1[nH]cnc2nc(-c3ccc(N(CCCl)CCCl)cc3)[nH]c12`, the GI50 was 20.1 µM with U251 CNS; over 100 µM in the assay with HT29 colon; 84.8 µM in the assay with BT-549 breast; 30.1 µM in the assay with OVCAR-5 ovarian; over 100 µM in the assay on HL-60(TB) leukemia; 4.51 µM with NCI-H460 lung. Besides, the GI50 in the assay on SK-MEL-2 melanoma was over 100 µM; with SN12C renal it was 63.7 µM; in the assay on T-47D breast, 2.85 µM. Further, the TGI with U251 CNS, in the assay on HT29 colon, with BT-549 breast, in the assay on OVCAR-5 ovarian, in the assay with HL-60(TB) leukemia and with NCI-H460 lung was over 100 µM in each case. For the same compound, the TGI in the assay with SK-MEL-2 melanoma, in the assay with SN12C renal and with T-47D breast was over 100 µM each time.
Consider `O=C(Nc1ccccc1C(=O)Nc1nccs1)c1ccccc1`, for which the TGI with U251 CNS, in the assay with UACC-257 melanoma, in the assay with HT29 colon, in the assay with BT-549 breast, with OVCAR-5 ovarian and with HL-60(TB) leukemia was over 100 µM in each case. In addition, the TGI in the assay with NCI-H460 lung is over 100 µM; in the assay on SK-MEL-2 melanoma, over 100 µM; in the assay with SN12C renal, over 100 µM; with T-47D breast, 56.4 µM.
Turning to `C[C@]12CC[C@H]3[C@@H](CCC4=C[C@@H](OC5OCC(OC6OC(CO)C(O)C(O)C6O)C(O)C5O)CC[C@@]43C=O)[C@@]1(O)CCC2C1=CC(=O)OC1` (some centres not stated), the TGI with U251 CNS was determined as 8.84 µM; in the assay with HT29 colon it was 5.35 µM; in the assay on BT-549 breast, 0.881 µM; in the assay with OVCAR-5 ovarian it was 3.78 µM; in the assay on HL-60(TB) leukemia, 0.646 µM; in the assay with NCI-H460 lung, 0.534 µM. Besides, the TGI was 5.93 µM with SK-MEL-2 melanoma, 2.01 µM in the assay with SN12C renal and over 24.8 µM with T-47D breast.
Turning to `CCC(=O)OC1=CN2C(=NC(c3ccc(N)cc3)=CC2c2cc(OC)c(OC)c(OC)c2)S1` (configuration not stated), the GI50 in the assay with U251 CNS was 3.49 µM; in the assay with UACC-257 melanoma it was 5.96 µM; in the assay with HT29 colon, 3.82 µM; in the assay on BT-549 breast, 4.57 µM; in the assay with OVCAR-5 ovarian it was 4.04 µM; in the assay with HL-60(TB) leukemia, 3.01 µM. For the same compound, the GI50 in the assay on NCI-H460 lung is 2.61 µM; in the assay with SK-MEL-2 melanoma, 5.93 µM; in the assay with SN12C renal, 4.34 µM; in the assay on T-47D breast it was 4.01 µM. In addition, the TGI with U251 CNS was 13.8 µM; in the assay on UACC-257 melanoma, 19.9 µM; with HT29 colon, 14.2 µM; with BT-549 breast, 19.4 µM; with OVCAR-5 ovarian it was 17.1 µM; with HL-60(TB) leukemia it was over 100 µM. Besides, the TGI is 8.52 µM with NCI-H460 lung, 20.4 µM in the assay on SK-MEL-2 melanoma, 22.2 µM in the assay with SN12C renal and 30.8 µM in the assay on T-47D breast.
Take `CC(C)N(Cc1ccccc1)S(=O)(=O)c1n[nH]c(C(C)(C)C)n1`: the TGI in the assay on U251 CNS, in the assay with UACC-257 melanoma, with HT29 colon, in the assay with BT-549 breast, in the assay on OVCAR-5 ovarian and in the assay on HL-60(TB) leukemia was over 100 µM throughout. Moreover, the TGI with NCI-H460 lung, in the assay with SK-MEL-2 melanoma, with SN12C renal and in the assay with T-47D breast was over 100 µM in each case.
As to `COc1ccc(S(=O)(=O)n2c3ccccc3n3ncc(-c4nnc(C)o4)c23)cc1`, the GI50 with U251 CNS is 0.473 µM; in the assay on UACC-257 melanoma, 22.4 µM; with HT29 colon it was 0.381 µM; in the assay on BT-549 breast, 0.516 µM; in the assay with OVCAR-5 ovarian, 2.1 µM; with HL-60(TB) leukemia it was 0.273 µM. Besides, the GI50 in the assay with NCI-H460 lung was 0.425 µM; with SK-MEL-2 melanoma it was 0.815 µM; with SN12C renal it was 0.73 µM; in the assay with T-47D breast, 0.584 µM. Also, the TGI is over 65.5 µM with U251 CNS; over 87 µM with UACC-257 melanoma; over 100 µM in the assay on HT29 colon; 20 µM in the assay with BT-549 breast; over 100 µM in the assay with OVCAR-5 ovarian; 0.841 µM in the assay on HL-60(TB) leukemia. The TGI with NCI-H460 lung was over 48.3 µM; in the assay with SK-MEL-2 melanoma, 82.1 µM; in the assay with SN12C renal, 39.6 µM; with T-47D breast, 62.4 µM.
For `O=C(Nc1ccc(-c2ccnc(Nc3ccc(N4CCOCC4)cc3)n2)cc1)C1CCCN1` (configuration not stated), the GI50 in the assay on U251 CNS was 3.05 µM; in the assay with UACC-257 melanoma, 8.99 µM; with HT29 colon, 3.89 µM; in the assay with BT-549 breast, 8.76 µM; in the assay on OVCAR-5 ovarian, 14.6 µM; in the assay on HL-60(TB) leukemia, 4.5 µM. Besides, the GI50 in the assay with NCI-H460 lung was 1.6 µM; with SK-MEL-2 melanoma, 15.2 µM; in the assay with SN12C renal it was 4.47 µM; in the assay with T-47D breast it was 14.7 µM. For the same compound, the TGI in the assay with U251 CNS turned out to be 21.6 µM; in the assay with UACC-257 melanoma it was 22.8 µM; in the assay with HT29 colon, 23.3 µM; in the assay on BT-549 breast, 23 µM; in the assay on OVCAR-5 ovarian, 30.7 µM; in the assay on HL-60(TB) leukemia, 25.5 µM. The TGI turned out to be 16.4 µM with NCI-H460 lung, 35.8 µM with SK-MEL-2 melanoma, 44 µM with SN12C renal and 38.7 µM with T-47D breast.
